Measurements reported in ChEMBL document CHEMBL1134442, “Novel selective PDE4 inhibitors. 2. Synthesis and structure-activity relationships of 4-aryl-substituted cis-tetra- and cis-hexahydrophthalazinones” (J Med Chem, 2001).

Legend:
Phosphodiesterase 3 = Phosphodiesterase 3 (Homo sapiens, UniProt Q14432+Q13370); assay: Inhibitory activity of the against phosphodiesterase 3 (PDE3); No significant inhibitory activity at pIC50; format: protein assay
Phosphodiesterase 4 = Phosphodiesterase 4 (Homo sapiens, UniProt P27815+Q08499+Q07343+Q08493); assay: Inhibition of phosphodiesterase 4 (PDE4) in human neutrophils; format: protein assay

pIC50 (Phosphodiesterase 3) | pIC50 (Phosphodiesterase 4) | SMILES
< 5.5 | < 5 | COc1cc(C2=NN(Cc3ccccc3)C(=O)C3CCCCC23)ccc1OC1CCCC1 (stereo not given)
< 5.5 | 9.2 | COc1ccc(C2=NN(C3CCCCCC3)C(=O)C3CC=CCC23)c2c1OC1(CCCC1)C2 (stereo not given)
< 5.5 | 7.2 | COc1ccc(C2=NN(C3CCCCCC3)C(=O)C3CC=CCC23)cc1OCCCC(=O)O (stereo not given)
< 5.5 | 8.3 | COc1ccc(C2=NN(C3CCCCCC3)C(=O)C3CC=CCC23)cc1OCCCCCc1ccccc1 (stereo not given)
< 5.5 | 7.4 | COc1ccc(C2=NN(C3CCCCCC3)C(=O)C3CC=CCC23)cc1O (stereo not given)
< 5.5 | 8 | COc1ccc(C2=NN(Cc3ccccc3)C(=O)C3CCCCC23)cc1OC1CCCC1 (stereo not given)
< 5.5 | < 5 | O=C1C2CCCCC2C(c2cccc(Cl)c2)=NN1Cc1ccccc1 (stereo not given)
< 5.5 | 7.4 | COc1ccc(C2=NN(C3CCCCCC3)C(=O)C3CC=CCC23)cc1OCCCCN(C)C (stereo not given)
< 5.5 | 8 | COc1ccc(C2=NN(C3CCCCCC3)C(=O)C3CC=CCC23)cc1Cl (stereo not given)
< 5.5 | 8.9 | COc1ccc(C2=NN(C3CCCCCC3)C(=O)C3CC=CCC23)cc1OC1CCCC1 (stereo not given)
< 5.5 | 7.2 | COc1ccc(C2=NN(C3CCCCCC3)C(=O)C3CC=CCC23)cc1OCCN(C)C (stereo not given)
< 5.5 | 7.8 | CCOc1ccc(C2=NN(Cc3ccccc3)C(=O)C3CCCCC23)cc1OCC (stereo not given)
< 5.5 | 9.7 | COc1ccc(C2=NN(C3CCCCCC3)C(=O)C3CC=CCC23)cc1OCCCCOc1ccc(-n2ccnc2)cc1 (stereo not given)
< 5.5 | 5.9 | COc1ccc(C2=NN(Cc3ccccc3)C(=O)C3CCCCC23)cc1 (stereo not given)
< 5.5 | 9 | COc1ccc(C2=NN(C3CCCCCC3)C(=O)C3CC=CCC23)c2c1OC(C)(C)C2 (stereo not given)
< 5.5 | 8.1 | COc1ccc(C2=NN(Cc3ccccc3)C(=O)C3CCCCC23)cc1OC (stereo not given)
< 5.5 | – | COc1ccc([C@@H]2CNC(=O)C2)cc1OC1CCCC1 [(-)-ROLIPRAM]
< 5.5 | 9.5 | COc1ccc(C2=NN(C3CCCCCC3)C(=O)C3CC=CCC23)cc1OCCCCCCOc1ccc(C(N)=O)cc1 (stereo not given)

pIC50 (Phosphodiesterase 3) | pIC50 (Phosphodiesterase 4) | SMILES
< 5.5 | – | COc1ccc([C@]2(C#N)CC[C@@H](C(=O)O)CC2)cc1OC1CCCC1 [CILOMILAST]
< 5.5 | 8.8 | COc1ccc(C2=NN(C3CCCCCC3)C(=O)C3CC=CCC23)cc1OC(F)F (stereo not given)
< 5.5 | 5.8 | O=C1C2CCCCC2C(c2ccc3c(c2)OCO3)=NN1Cc1ccccc1 (stereo not given)
< 5.5 | 8 | COc1ccc(C2=NN(C3CCCCCC3)C(=O)C3CC=CCC23)cc1OCCCCCCOc1ccccc1 (stereo not given)
< 5.5 | 9.1 | COc1ccc(C2=NN(C3CCCCCC3)C(=O)C3CC=CCC23)cc1OC (stereo not given)
< 5.5 | 8.1 | COc1ccc(C2=NN(C3CCCCCC3)C(=O)C3CC=CCC23)cc1OCCCCn1ccnc1 (stereo not given)
< 5.5 | 9 | COc1ccc(C2=NN(C3CCCCCC3)C(=O)C3CC=CCC23)cc1OCC1CC1 (stereo not given)
< 5.5 | 9.2 | COc1ccc(C2=NN(C3CCCCCC3)C(=O)C3CC=CCC23)cc1OCCCCOc1ccc(-c2nn[nH]n2)cc1 (stereo not given)
< 5.5 | 8.6 | COc1ccc(C2=NN(Cc3ccccc3)C(=O)C3CCCCC23)c2c1OC1(CCCC1)C2 (stereo not given)
< 5.5 | 8.7 | COc1ccc(C2=NN(C3CCCCCC3)C(=O)C3CC=CCC23)cc1OCCCCCCOc1ccc(C(=O)O)cc1 (stereo not given)
< 5.5 | 7.6 | COc1ccc(C2=NN(C3CCCCCC3)C(=O)C3CC=CCC23)cc1OCCCCn1cnc2ncncc21 (stereo not given)
< 5.5 | 5.6 | COc1cccc(C2=NN(Cc3ccccc3)C(=O)C3CCCCC23)c1 (stereo not given)
< 5.5 | 5.6 | COc1ccc(C2=NN(C3CCCCCC3)C(=O)C3CC=CCC23)cc1OCC(=O)O (stereo not given)
< 5.5 | 7.8 | COc1ccc(C2=NN(C3CCCCCC3)C(=O)C3CC=CCC23)cc1OCCCCC(=O)O (stereo not given)
< 5.5 | 8.4 | COc1ccc(C2=NN(C3CCCCCC3)C(=O)C3CC=CCC23)cc1OCCO (stereo not given)
< 5.5 | 8.6 | COc1ccc(C2=NN(C3CCCCCC3)C(=O)C3CC=CCC23)cc1OCCCCOc1ccc(C#N)cc1 (stereo not given)
< 5.5 | < 5 | O=C1C2CCCCC2C(c2ccccc2)=NN1Cc1ccccc1 (stereo not given)
< 5.5 | 9.5 | COc1ccc(C2=NN(C3CCCCCC3)C(=O)C3CC=CCC23)cc1OCCCCOc1ccc(C(=O)O)cc1 (stereo not given)
